# Data: paper PMC10280969, “A green leaf volatile, (Z)-3-hexenyl-acetate, mediates differential oviposition by Spodoptera frugiperda on maize and rice” (BMC Biology, 2023)
# Legend:
# Experiment in all cases: two-electrode voltage clamp, Xenopus oocytes
# Assay type in all cases: cell-based
# Conditions in all cases: 10^-4 M odorant; Ca2+-free Ringer buffer pH 7.6; agonist
# SfruOR5 = target: T1, SfruOR5 (Spodoptera frugiperda, UniProt A0A9R0ELQ8)
# T1 construct: gene LOC118270580; full-length ORF, pT7TS cRNA, Xenopus laevis oocytes; with Odorant receptor coreceptor
# T1 sequence (A0A9R0ELQ8 1-379): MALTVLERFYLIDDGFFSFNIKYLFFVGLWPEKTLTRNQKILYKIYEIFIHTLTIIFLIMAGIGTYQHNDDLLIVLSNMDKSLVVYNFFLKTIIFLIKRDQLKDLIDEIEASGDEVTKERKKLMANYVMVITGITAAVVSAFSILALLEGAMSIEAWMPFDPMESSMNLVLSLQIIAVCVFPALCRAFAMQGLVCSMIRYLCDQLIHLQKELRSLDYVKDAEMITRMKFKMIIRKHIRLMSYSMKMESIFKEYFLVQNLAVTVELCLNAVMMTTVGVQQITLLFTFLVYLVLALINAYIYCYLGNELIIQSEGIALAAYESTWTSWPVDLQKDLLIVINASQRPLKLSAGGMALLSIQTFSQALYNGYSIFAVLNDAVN
# T1 sequence (A0A9F1UC78 1-473 partner): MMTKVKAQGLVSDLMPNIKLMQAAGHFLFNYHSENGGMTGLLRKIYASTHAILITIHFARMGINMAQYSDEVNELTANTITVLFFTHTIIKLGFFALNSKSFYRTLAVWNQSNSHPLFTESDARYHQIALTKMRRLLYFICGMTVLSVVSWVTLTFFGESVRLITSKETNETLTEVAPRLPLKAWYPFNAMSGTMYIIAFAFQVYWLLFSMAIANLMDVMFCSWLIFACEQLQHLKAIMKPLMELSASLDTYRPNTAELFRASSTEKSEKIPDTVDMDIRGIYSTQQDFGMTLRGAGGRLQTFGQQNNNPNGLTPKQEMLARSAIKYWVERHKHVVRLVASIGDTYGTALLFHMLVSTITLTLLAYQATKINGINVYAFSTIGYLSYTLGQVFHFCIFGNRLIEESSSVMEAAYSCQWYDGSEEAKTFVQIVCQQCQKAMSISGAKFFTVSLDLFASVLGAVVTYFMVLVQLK
# SfruOR17 = target: T2, SfruOR17 (Spodoptera frugiperda, UniProt A0A9R0D2T2)
# T2 construct: gene LOC118267896; full-length ORF, pT7TS cRNA, Xenopus laevis oocytes; with Odorant receptor coreceptor
# T2 sequence (A0A9R0D2T2 1-395): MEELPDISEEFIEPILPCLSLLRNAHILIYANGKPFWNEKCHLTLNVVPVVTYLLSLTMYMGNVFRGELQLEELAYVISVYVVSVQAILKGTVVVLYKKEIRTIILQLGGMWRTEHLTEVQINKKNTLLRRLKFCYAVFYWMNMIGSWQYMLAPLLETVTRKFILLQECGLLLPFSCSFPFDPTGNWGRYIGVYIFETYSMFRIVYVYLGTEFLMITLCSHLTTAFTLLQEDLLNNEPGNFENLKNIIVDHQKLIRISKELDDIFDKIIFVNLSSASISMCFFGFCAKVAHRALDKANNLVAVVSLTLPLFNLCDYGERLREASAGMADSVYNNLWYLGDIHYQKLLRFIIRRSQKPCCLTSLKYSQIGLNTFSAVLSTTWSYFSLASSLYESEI
# T2 sequence (A0A9F1UC78 1-473 partner): T1 sequence (A0A9F1UC78 1-473 partner)
# SfruOR23/ORco = target: T3, SfruOR23/ORco (Spodoptera frugiperda, UniProt A0A9R0EA99)
# T3 construct: gene LOC118268273; full-length ORF, pT7TS cRNA, Xenopus laevis oocytes, with ORco; with Odorant receptor coreceptor
# T3 sequence (A0A9R0EA99 1-429): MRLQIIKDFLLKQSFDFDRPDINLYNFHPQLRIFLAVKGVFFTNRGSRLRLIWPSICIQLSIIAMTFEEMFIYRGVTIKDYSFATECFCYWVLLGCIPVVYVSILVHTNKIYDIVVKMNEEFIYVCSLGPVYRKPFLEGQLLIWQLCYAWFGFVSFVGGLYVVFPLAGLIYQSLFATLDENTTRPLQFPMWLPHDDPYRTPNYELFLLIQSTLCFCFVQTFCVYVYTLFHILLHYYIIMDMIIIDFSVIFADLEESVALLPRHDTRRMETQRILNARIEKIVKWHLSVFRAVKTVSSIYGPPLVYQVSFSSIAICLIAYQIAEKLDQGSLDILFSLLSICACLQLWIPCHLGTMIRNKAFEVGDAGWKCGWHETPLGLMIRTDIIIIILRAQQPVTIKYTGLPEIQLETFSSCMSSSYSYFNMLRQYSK
# T3 sequence (A0A9F1UC78 1-473 partner): T1 sequence (A0A9F1UC78 1-473 partner)
# SfruOR9 = target: T4, SfruOR9 (Spodoptera frugiperda, UniProt A0A9R0EEX7)
# T4 construct: gene LOC118261888; full-length ORF, pT7TS cRNA, Xenopus laevis oocytes; with Odorant receptor coreceptor
# T4 sequence (A0A9R0EEX7 1-400): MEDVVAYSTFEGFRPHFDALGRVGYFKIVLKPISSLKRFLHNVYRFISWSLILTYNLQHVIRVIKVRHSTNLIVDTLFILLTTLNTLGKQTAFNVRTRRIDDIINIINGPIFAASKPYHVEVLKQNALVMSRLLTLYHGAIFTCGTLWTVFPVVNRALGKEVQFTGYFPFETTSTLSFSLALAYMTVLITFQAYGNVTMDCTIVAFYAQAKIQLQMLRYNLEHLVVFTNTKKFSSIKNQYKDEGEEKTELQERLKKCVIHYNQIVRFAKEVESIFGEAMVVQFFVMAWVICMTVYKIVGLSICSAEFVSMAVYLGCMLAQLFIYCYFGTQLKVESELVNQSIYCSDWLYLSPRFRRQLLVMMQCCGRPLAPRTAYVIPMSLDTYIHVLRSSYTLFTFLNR
# T4 sequence (A0A9F1UC78 1-473 partner): T1 sequence (A0A9F1UC78 1-473 partner)
compound,measurement,setting,value
CC/C=C\CCOC(C)=O [(Z)-3-hexenyl-acetate],inward current response,SfruOR5,"SfruOR5, SfruOR9, SfruOR17, SfruOR23, and SfruOR25 responded to the oviposition stimulant (Z)-3-hexenyl-acetate"
same,inward current response,SfruOR17,"SfruOR5, SfruOR9, SfruOR17, SfruOR23, and SfruOR25 responded to the oviposition stimulant (Z)-3-hexenyl-acetate"
same,inward current response,SfruOR23/ORco,with SfruOR23/ORco showing the highest response
same,inward current response,SfruOR9,"SfruOR5, SfruOR9, SfruOR17, SfruOR23, and SfruOR25 responded to the oviposition stimulant (Z)-3-hexenyl-acetate"
